Where a name gives a salt, the structure may show the parent alone.
Assays:
[1] = Stability in simulated gastric fluid; assay type: in vitro ADME; conditions: over a 60 minute period, compound remaining
Description: (§1) The stability of various compounds as disclosed herein was tested in human and rat and in simulated gastric fluid. Each compound was tested over an hour period for concentration of the compound remaining at each time point. The results are shown in FIGS. 3 (human plasma stability), 4 (rat plasma stability), and 5 (simulated gastric fluid stability) for the compounds of Example 2, 3, 4, and 20.

Stability in rat plasma = assay type: in vitro ADME; conditions: over a 60 minute period, compound remaining
Description: as §1

[2] = Stability in human plasma; assay type: in vitro ADME; conditions: over a 60 minute period, compound remaining
Description: as §1

[3] = test system: human umbilical vein endothelial cells (HUVEC); experiment: Nitric oxide production (nitrite+nitrate) in NAS-treated HUVEC; assay type: cell-based; conditions: for NO production (nitrite+nitrate): 5-22 hours treatment; for effect (response) relative to that of free BH4: 5 to 22 hours exposure
Description: Cultured human umbilical vein endothelial cells (HUVEC) were pretreated with 3 mM N-acetylserotonin (NAS), an inhibitor of the enzyme sepiapterin reductase. Inhibition of this pathway typically results in loss of endogenous BH4, depressing the endogenous eNOS activity far below normal and provides an assay to test for restoration of eNOS activity.
Thus, subconfluent HUVECs were seeded in a 24-well plate and grown overnight in EGM2 medium (full growth medium). The next morning, fresh medium was added to the cells (300 μL/well), 3 mM N-acetylserotonin (NAS), an inhibitor of the enzyme sepiapterin reductase (a member of the synthesis pathway for endogenous BH4) was added to the cells to decrease the endogenous BH4 levels. After an incubation of 1.5 hours, 50, 100, or […] BH4 or compound of Example 5, Example 6, Example 7, or Example 9 were added to the cells. The cells were allowed to react with the BH4 or the compound of Example 5, Example 7, or Example 9 for 5-22 hours. The production of NO was then measured as changes in total (nitrite+nitrate) by the Griess reaction subsequent to nitrate reductase treatment. 90 μL of reaction mixture (25 mM Tris-HCL, pH7.4, 1 μM FAD, 1 μM FMN, 100 μM L-Arginin 2.5 mM CaCl2, 1 mM NADPH, 0.04 mg/ml Calmodulin) was mixed with 5 μl of eNOS (15 units/ml) and 5 μl of BH4 or BH4 analogs (1, 10, 100 μM), followed by incubation in a 37° C. water bath for 90 minutes. Then 100 μl of water and 20 μl of the nitrite fluorescent probe DAN (2,3-diaminonaphthalene, 316 μM) were added to each reaction and incubated at room temperature for 10 minutes. The dye DAN reacts with nitrite to yield the fluorescent product naphthotriazole. The reaction was then stopped by adding 10 μl of NaOH (2.8 M), and the fluorescence of the samples was read using excitation frequency 375 nm and emission frequency 415 nm. The percentage of nitrite+nitrate with BH4 or compound of Example 5, Example 7, or Example 9 is shown in FIG. 17 (after 5 hours); FIG. 18 (after 17 hours); and FIG. 19 (after 22 hours). The results for Example 6 are shown in FIG. 20 (after 5 hours) and FIG. 21 (after 20 hours).

eNOS = eNOS (Homo sapiens, UniProt P29474); experiment: Cell-free eNOS activity assay reconstituted from purified components; assay type: biochemical; conditions: 1, 10, 100 μM, 90 minutes at 37° C., nitrite by DAN fluorescence
Description: Also tested was the effect of BH4 analogs compared to free BH4 on stimulation of eNOS activity in a cell-free assay system reconstituted from purified components. 90 μL of reaction mixture (25 mM Tris-HCL, pH7.4, 1 μM FAD, 1 μM FMN, 100 μM L-Arginine, 2.5 mM CaCl2, 1 mM NADPH, 0.04 mg/ml Calmodulin) was mixed with 5 μl of eNOS (15 units/ml) and 5 μl of BH4 or BH4 analogs (1, 10, 100 μM), followed by incubation in a 37° C. water bath for 90 minutes. Then 100 μl of water and 20 μl of the nitrite fluorescent probe DAN (2,3-diaminonaphthalene, 316 μM) were added to each reaction and incubated at room temperature for 10 minutes. The dye DAN reacts with nitrite to yield the fluorescent product naphthotriazole. The reaction was then stopped by adding 10 μl of NaOH (2.8 M), and the fluorescence of the samples was read using excitation frequency 375 nm and emission frequency 415 nm.

[4] = Pharmacokinetics and bioavailability, single intravenous or oral doses, partial Latin square crossover; assay type: in vivo, male cynomolgus monkeys; conditions: male, cynomolgus monkey, plasma; intravenous; title 5 mg/kg, text 2 mg/kg; n=6
[5] = as above; assay type: in vivo, male cynomolgus monkeys; conditions: oral 40 mg/kg, n=6
Description: This study was to determine the pharmacokinetics and relative bioavailability of BH4 when given as parent BH4 or an analog of BH4 to male cynomolgus monkeys as single intravenous or oral doses in a partial Latin square crossover design.
Six, male, non-naïve cynomolgus monkeys were fasted overnight prior to dosing through approximately 4 hours postdose. Individual doses were calculated based on body weights recorded on each day of dose administration. Five experimental groups of monkeys were evaluated using a partial Latin square crossover design: Group 1-2 mg/kg BH4 by IV; Group 2-40 mg/kg BH4 by oral gavage; Group 3-2 mg/kg BH4 analog by IV; Group 4-5 mg/kg BH4 analog by oral gavage; Group 5-20 mg/kg BH4 analog by oral gavage. The doses of BH4 analog were prepared as mg/kg equivalents of BH4 (calculated using BH4 and BH4 analog 2HCl molecular weights). The partial Latin square crossover design was used to minimize dose sequence effect on interanimal variability for statistical purposes. The monkeys received their respective dose of BH4 intravenously (2 mL/kg, dissolved in 100 μM ascorbic acid and 5% mannitol in sterile water for injection, SWFI), Example 5 intravenously (2 mL/kg, dissolved in 100 μM ascorbic acid and 5% mannitol in citrate buffer, pH 3) or BH4 or Example 5 by oral gavage (4 mL/kg, dissolved in 100 μM ascorbic acid in SWFI). Prior to use, all intravenous dose formulations were filtered into the final dosing container using a 0.22-micron syringe filter (Millex GS or GV; Millipore).
For intravenous administration, blood (approximately 1 mL) was collected from each animal predose and at 0.083, 0.25, 0.5, 1, 2, 3, 4, 6, 8, 12, 18, and 24 hours postdose. For oral administration, blood (approximately 1 mL) was collected from each animal predose and at 0.25, 0.5, 1, 2, 3, 4, 6, 8, 12, 18, and 24 hours postdose. Blood was collected into tubes containing K2-EDTA anticoagulant, which was maintained in chilled condition, and centrifuged to obtain plasma. Centrifugation began within 30 minutes of collection. Three, 100-μL aliquots of each plasma sample were promptly transferred following centrifugation into individual tubes containing 0.1% (w/v) dithioerythritol (DTE) for storage. Once the plasma aliquot was added, each tube was vortexed briefly to mix then immediately placed on dry ice.

[6] = test system: Spontaneously Hypertensive rats (SHR); experiment: Anti-hypertensive effect, tail-cuff systolic blood pressure in SHR; assay type: in vivo, rat
Description: This study was to determine if the BH4 analogs have a similar hypotensive effect and to determine the steady state pharmacokinetics (PK) profiles of plasma BH4 concentrations.
Male Wistar-Kyoto (WKY) rats and SHR rats (Elevage Janvier, France, 7 weeks old) were housed seven days prior to the beginning of experiments with free access to standard chow and water and maintained on an inversed 12 h dark/light cycle (10:00/22:00). After a one week acclimation period, the animals were trained to the tail-cuff system during one week (3 sessions). The following week, two baseline measurements of blood pressure were performed.
The rats (10 weeks old) then received respective treatments of water, vehicle, 2, 10, or 30 mg/kg/day of BH4 analog (Example 5, Val-BH4) or 100 mg/kg/day BH4 by oral gavage (8 mL/kg, dissolved in 100 μM ascorbic acid) performed once a day during 21 days of treatment. The doses of BH4 analog were prepared as mg/kg equivalents of BH4 (calculated using BH4 and BH4 analog 2HCl molecular weights). Body weight was monitored 3 times per week and the most recent body weight was used to adjust drug and vehicle daily intake. Seven experimental groups of rats were evaluated: Group 1—normotensive WKY rats and water gavage; Group 2—hypertensive SHR rats and water gavage; Group 3—hypertensive SHR rats and vehicle gavage; Group 4—hypertensive SHR rats and BH4 100 mg/kg/day gavage; Group 5—hypertensive SHR rats and BH4 analog 2 mg/kg/day gavage; Group 6—hypertensive SHR rats and BH4 analog 10 mg/kg/day gavage; Group 7—hypertensive SHR rats and 30 mg/kg/day BH4 analog gavage. To account for animal loss or animal disqualification during experimental handling, 10 rats were used in each group, with the expectation to obtain interpretable results for at least 8. Systolic blood pressure (SBP) and heart rate (HR) were measured twice weekly during the 3-week treatment period.
Systolic blood pressure (SBP) and heart rate (HR) were measured using the tail-cuff method, twice before the beginning of the treatment and twice weekly during the 3 week treatment period (6 measurements during the treatment period). Rats were placed in a plastic restraint and warmed to […]. A pneumatic pulse sensor was attached to the tail. After cuff inflation, SBP was measured and HR was determined by counting pulse numbers per minute. Data for each rat was taken an average of at least 4 stable readings. At least 10 cuff inflations were performed for each BP measurement.

[7] = male, cynomolgus monkey, plasma

| stability in simulated gastric fluid [1] | stability in rat plasma (Stability in rat plasma) | stability in human plasma [2] | Compound | NO production (nitrite+nitrate) [3] | effect (response) relative to that of free BH4 [3] | potentiation of eNOS activity (eNOS) | further results |
| --- | --- | --- | --- | --- | --- | --- | --- |
|  |  |  | C[C@H](OC(=O)[C@@H]1CCCN1)[C@H](O)[C@H]1CNc2nc(N)[nH]c(=O)c2N1 [Example 9, Pyrrolidine-2-carboxylic acid 2-(2-amino-4-oxo-3,4,5,6,7,8-hexahydro-pteridin-6-yl)-2-hydroxy-1-methyl-ethyl ester dihydrochloride] | increased NO production in a dose-dependent manner | similar, if slightly reduced, effect | slight effect on eNOS activity |  |
| high level of stability | high level of stability | high level of stability | C[C@H](O)[C@H](O)[C@H]1CNc2nc(N)[nH]c(=O)c2N1C(=O)OCc1ccccc1 (stereo in doubt) [Example 20, 2-Amino-6-(1,2-dihydroxy-propyl)-4-oxo-4,6,7,8-tetrahydro-1H-pteridine-5-carboxylic acid benzyl ester] |  |  |  |  |
|  |  |  | C[C@@H](O)[C@@H](O)[C@H]1CNc2nc(N)[nH]c(=O)c2N1 [Example 6S-BH4, reference compound] |  |  | did not significantly potentiate eNOS activity |  |
|  |  |  | CCC(C)[C@H](N)C(=O)O[C@@H](C)[C@H](O)[C@H]1CNc2nc(N)[nH]c(=O)c2N1 (stereo in doubt) [Example 6, 2-Amino-3-methyl-pentanoic acid 2-(2-amino-4-oxo-3,4,5,6,7,8-hexahydro-pteridin-6-yl)-2-hydroxy-1-methyl-ethyl ester] | increased NO production in a dose-dependent manner | similar, if slightly reduced, effect |  |  |
| high level of stability | high level of stability | high level of stability | CCC(=O)O[C@@H]([C@H](C)OC(=O)CC)[C@H]1CNc2nc(N)[nH]c(=O)c2N1C(=O)CC [Example 3, Propionic acid 1-(2-amino-4-oxo-5-propionyl-3,4,5,6,7,8-hexahydro-pteridin-6-yl)-2-Propionyloxy-propyl ester] |  |  |  |  |
|  |  |  | C[C@H](O)[C@H](O)[C@H]1CNc2nc(N)[nH]c(=O)c2N1 [BH4, Tetrahydrobiopterin, reference compound] |  |  | did potentiate eNOS activity in a dose-dependent manner | AUC(0-inf) [4]: 6.96 µM·h; AUC(0-t) [4]: 6.76 µM·h; Cmax [4]: 7.05 µM; Tmax [4]: 6.6 min; bioavailability ([5]; male, cynomolgus monkey, plasma, po, 40 mg/kg, based on 6R-BH4 IV, read-out: Absolute Bioavailability, BH4): 9.8%; AUC(0-inf) [5, 7]: 13.4 µM·h; AUC(0-t) [5, 7]: 11.9 µM·h; Cmax [5, 7]: 2.33 µM; Tmax [5, 7]: 3.7 h; half-life [5, 7]: 5.9 h; Absolute Bioavailability, BH4 ([5]; based on 6R-BH4 IV, 40 mg/kg): 9.2 (4.2) %; lowering of systolic blood pressure (SBP) ([6]; SHR, 100 mg/kg/day oral gavage, after 3 weeks, vs vehicle): about 8.4 mmHg; blood pressure of SHR ([6]; previous studies, 10, 100, and 500 mg/kg/day, two weeks of oral administration): reduced the blood pressure |
|  |  |  | C[C@H](OC(=O)[C@@H](N)CCCCN)[C@H](O)[C@H]1CNc2nc(N)[nH]c(=O)c2N1 [Example 7, 2,6-Diamino-hexanoic acid 2-(2-amino-4-oxo-3,4,5,6,7,8-hexahydro-pteridin-6-yl)-2-hydroxy-1-methyl-ethyl ester tri-hydrochloride] | increased NO production in a dose-dependent manner | similar, if slightly reduced, effect | slight effect on eNOS activity |  |

| Compound | stability in simulated gastric fluid [1] | stability in rat plasma (Stability in rat plasma) | stability in human plasma [2] | NO production (nitrite+nitrate) [3] | effect (response) relative to that of free BH4 [3] | potentiation of eNOS activity (eNOS) | further results |
| --- | --- | --- | --- | --- | --- | --- | --- |
| CC(=O)O[C@@H]([C@H](C)OC(C)=O)[C@H]1CNc2nc(N)[nH]c(=O)c2N1C(C)=O [Example 2, Acetic acid 2-acetoxy-1-(5-acetyl-2-amino-4-oxo-3,4,5,6,7,8-hexahydro-pteridin-6-yl)-propyl ester] | high level of stability | high level of stability | high level of stability |  |  |  |  |

From patent publication US7601717B2, “Pterin analogs” (BioMarin Pharmaceutical Inc., priority 2008, dated 2009)
